According to PubChem BioAssay (NCI):
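A five-concentration, 48-hour dose response in 96-well plates underlies each endpoint, interpolated linearly between surrounding concentrations. GI50: concentration for 50% inhibition of growth. TGI is the concentration that stops growth completely.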

Columns and labels:
Experiment in all cases: NCI-60 cell line screen, 48 h
SN12C renal = test system: SN12C renal
OVCAR-4 ovarian = test system: OVCAR-4 ovarian
COLO 205 colon = test system: COLO 205 colon
NCI-H226 lung = test system: NCI-H226 lung
HCC-2998 colon = test system: HCC-2998 colon
HS 578T breast = test system: HS 578T breast
CCRF-CEM leukemia = test system: CCRF-CEM leukemia
OVCAR-8 ovarian = test system: OVCAR-8 ovarian
M14 melanoma = test system: M14 melanoma
ACHN renal = test system: ACHN renal

Row | SMILES | GI50 (SN12C renal) | TGI (SN12C renal) | GI50 (OVCAR-4 ovarian) | TGI (OVCAR-4 ovarian) | GI50 (COLO 205 colon) | TGI (COLO 205 colon) | GI50 (NCI-H226 lung) | TGI (NCI-H226 lung) | GI50 (HCC-2998 colon) | TGI (HCC-2998 colon) | GI50 (HS 578T breast) | TGI (HS 578T breast) | GI50 (CCRF-CEM leukemia) | TGI (CCRF-CEM leukemia) | GI50 (OVCAR-8 ovarian) | TGI (OVCAR-8 ovarian) | GI50 (M14 melanoma) | TGI (M14 melanoma) | GI50 (ACHN renal) | TGI (ACHN renal)
1 | CC(C)(O)CCc1cccc(C(=O)c2cnn(-c3ccc(F)cc3)c2N)c1 | > 25000 nM | > 25 µM | > 23.3 µM | > 25 µM | > 25000 nM | > 25 µM | > 19.7 µM | > 25 µM | > 25 µM | > 25 µM | > 25 µM | > 25 µM | > 25 µM | > 25 µM | > 25000 nM | > 25 µM | > 25000 nM | > 25 µM | > 25000 nM | > 25 µM
2 | O=C(CSC(c1ccccc1)c1ccccc1)N/N=C/c1ccccc1Cl | 2660 nM | 11.8 µM | 11.3 µM | 77.2 µM | > 71800 nM | > 100 µM | > 33 µM | > 68.2 µM | 6.9 µM | > 75 µM | 9.64 µM | > 56.9 µM | 17.4 µM | 43.2 µM | 17900 nM | > 79.4 µM | 36800 nM | > 100 µM | 2180 nM | 25.2 µM
3 | O=C(NCCCl)Nc1ccccc1 | – | > 100 µM | – | > 100 µM | – | > 100 µM | – | > 100 µM | – | > 100 µM | – | > 100 µM | – | > 100 µM | – | > 100 µM | – | – | – | > 100 µM
4 | COc1c(-c2ccc3c(c2)OCO3)oc2cc(O)cc(O)c2c1=O | – | > 100 µM | – | 95 µM | – | > 100 µM | – | > 100 µM | – | > 100 µM | – | 53.3 µM | – | > 100 µM | – | > 100 µM | – | > 100 µM | – | > 100 µM
5 | COc1cc2c3c(n(CCN4CCOCC4)c(=O)c2cc1OC)-c1ccccc1C3=O | > 100000 nM | > 100 µM | > 100 µM | > 100 µM | > 100000 nM | > 100 µM | > 100 µM | > 100 µM | 33.8 µM | > 100 µM | > 100 µM | > 100 µM | 19.7 µM | > 100 µM | > 100000 nM | > 100 µM | > 100000 nM | > 100 µM | 35000 nM | > 100 µM
6 | CC(=O)c1ccc2c3c1[C@H]1O[C@H]1c1cccc(c1-3)[C@@H]1O[C@H]21 | – | 3.86 µM | – | 3.59 µM | – | 3.59 µM | – | > 88.3 µM | – | – | – | 4.95 µM | – | 4.2 µM | – | 3.49 µM | – | 3.38 µM | – | 3.79 µM
7 | CNCC(=O)NC(CO)C(=O)NC(CO)C(=O)NC1C(C(N)=O)OC(n2ccc(N)nc2=O)C(O)C1O (stereo unspecified) | 9.89 µg/mL | > 50 µg/mL | 0.495 µg/mL | 3.41 µg/mL | > 50 µg/mL | > 50 µg/mL | 1.65 µg/mL | 13.9 µg/mL | 20.6 µg/mL | > 50 µg/mL | 1.21 µg/mL | 4.42 µg/mL | > 50 µg/mL | > 50 µg/mL | 12.4 µg/mL | > 50 µg/mL | 9.22 µg/mL | 35.3 µg/mL | 5.15 µg/mL | > 50 µg/mL
8 | O=C(NCc1ccco1)C1CCN(S(=O)(=O)c2ccc(Cl)cc2)CC1 | > 100000 nM | > 100 µM | 54.9 µM | > 100 µM | > 100000 nM | > 100 µM | > 100 µM | > 100 µM | > 100 µM | > 100 µM | > 100 µM | > 100 µM | 83.8 µM | > 100 µM | > 100000 nM | > 100 µM | – | – | > 100000 nM | > 100 µM
9 | CN(C)CC1C(=O)O[C@H]2[C@H]1CC/C(COC(=O)NCc1ccc(Cn3c(=O)sn(CCCI)c3=O)cc1)=C\CC[C@@]1(C)O[C@@H]21 (stereo partly specified) | 958 nM | 2.12 µM | 0.843 µM | 1.77 µM | 833 nM | 1.66 µM | 7.32 µM | 17.6 µM | 7.56 µM | 15.4 µM | 5.75 µM | 17.7 µM | 1.46 µM | 7.88 µM | 1160 nM | 2.72 µM | 893 nM | 1.92 µM | 861 nM | 1.58 µM
10 | CC1=NN(c2cccc(Cl)c2)C(=O)/C1=C\C=C\c1ccccc1 | 2440 nM | 7.53 µM | 3.37 µM | > 100 µM | 2360 nM | 4.94 µM | 2.68 µM | 7.62 µM | 1.91 µM | 3.45 µM | 1.65 µM | 9.61 µM | 3.14 µM | > 100 µM | 2630 nM | 9.44 µM | 1700 nM | 3.57 µM | 1790 nM | 3.34 µM
11 | [Cl][Hg][c]1ccc2ccccc2c1 | 1760 nM | 3.57 µM | 2.69 µM | 6.71 µM | 2300 nM | 5.18 µM | 14.2 µM | 36.3 µM | 2.57 µM | 7.21 µM | 1.77 µM | 13.1 µM | 0.924 µM | 9.32 µM | 2320 nM | 6.17 µM | 1460 nM | 2.96 µM | 4330 nM | 11.8 µM
12 | CC(=O)O[C@@H]1C2=C(C)C3(CC3)[C@@](C)(O)C(=O)C2=C[C@@]1(C)CO | 1860 nM | 13.9 µM | 0.674 µM | 4.44 µM | 1220 nM | 3.73 µM | 2.12 µM | 5.22 µM | 0.496 µM | 1.89 µM | 1.68 µM | 5.75 µM | 0.475 µM | > 22.5 µM | 427 nM | > 100 µM | 340 nM | 1.61 µM | 484 nM | 2.33 µM
13 | O=C(NNc1ccccc1)c1ccc(Cl)c(Cl)c1 | – | > 100 µM | – | > 100 µM | – | 0.414 µM | – | > 100 µM | – | > 40.9 µM | – | > 100 µM | – | > 100 µM | – | > 100 µM | – | > 100 µM | – | > 100 µM
